Laboratory results taken from ChEMBL document CHEMBL1143515, “Structure-activity relationships of 1'S-1'-acetoxychavicol acetate for inhibitory effect on NO production in lipopolysaccharide-activated mouse peritoneal macrophages” (Bioorg Med Chem Lett, 2005).

Columns and labels:
[1] = species on record: Mus musculus; assay: Inhibitory concentration of compound on nitric oxide (NO) production in lipopolysaccharide activated mouse peritoneal macrophages; format: functional
[2] = species on record: Mus musculus; assay: Percent inhibition of nitric oxide (NO) production in lipopolysaccharide activated mouse peritoneal macrophages at 100 uM of compound; format: functional
[3] = Concentration with cytotoxic effect on mouse peritoneal macrophages

SMILES	IC50 ([1]; read-out: IC50)	Inhibition [2]	Cytotoxicity [3]	IC50 [1]
OC/C=C/c1ccc(O)cc1	> 100 µM	24%		
C=CCc1ccc(O[C@@H]2O[C@H](CO)[C@@H](O)[C@H](O)[C@H]2O)cc1	> 100 µM	6%		
CCC(OC(C)=O)c1ccccc1OC(C)=O (configuration not stated)	99 µM			
C=CC(OC(C)=O)c1cccc(OC(C)=O)c1 (configuration not stated)	> 100 µM	20%		
CCC(=O)Oc1ccc(C(CC)OC(=O)CC)cc1 (configuration not stated)	59 µM			
CCC(OC(C)=O)c1ccc(OC(C)=O)cc1 (configuration not stated)	10 µM			
C=CC(O)c1ccccc1O (configuration not stated)	> 100 µM	0%		
CCCC(OC(C)=O)c1ccc(OC(C)=O)cc1 (configuration not stated)	47 µM			
C=C[C@H](O)c1ccc(OC(C)=O)cc1	> 100 µM	46%		
C=CC(OC(C)=O)c1ccc(OC(C)=O)cc1 (configuration not stated)	4.9 µM			
C=C[C@H](OC(C)=O)c1ccc(OC(C)=O)cc1 [1'-ACETOXYCHAVICOL ACETATE]	2.3 µM			
CC(C)=O [ACETONE]				7.3 µg/mL
O=C(/C=C/c1ccc(O)c(O)c1)OCCc1ccccc1 [CAFFEIC ACID PHENETHYL ESTER]	15 µM			
O=C(O)/C=C/c1ccc(O)c(O)c1 [CAFFEIC ACID]	> 100 µM	15%		
O=C(O)/C=C/c1ccccc1 [CINNAMIC ACID]	> 100 µM	15%		
C=CCc1ccc(O)c(OC)c1 [EUGENOL]	> 100 µM	15%		
N=C(N)NCCSSCCNC(=N)N [GUANIDINOETHYLDISULFIDE]	7.4 µM			
COc1ccc(/C=C/C(=O)O)cc1OC [O,O'-DIMETHYLCAFFEIC ACID]	> 100 µM	1%		
O=C/C=C/c1ccc(O)cc1 [p-HYDROXYCINNAMALDEHYDE]	20 µM			

Second part, led by results:

IC50 ([1]; read-out: IC50)	SMILES	Inhibition [2]	Cytotoxicity [3]	IC50 [1]
> 100 µM	C=C[C@H](OC(C)=O)c1ccccc1	20%		
65 µM	C=CCc1ccc(OC(C)=O)cc1			
11 µM	C=C[C@H](OC(C)=O)c1ccc(OC(C)=O)c(OC)c1			
72 µM	CC(=O)OC/C=C/c1ccc(O)cc1			
> 100 µM	C=CC(OC)c1ccc(OC)cc1 (configuration not stated)	22%		
> 100 µM	C=CCC(O)c1ccc(O)cc1 (configuration not stated)	13%		
30 µM	C=CC(OC(=O)CC)c1ccc(OC(=O)CC)cc1 (configuration not stated)			
> 100 µM	CC[C@H](OC(C)=O)c1ccccc1	25%		
> 100 µM	C=CC(O)c1cccc(O)c1 (configuration not stated)	1%		
> 100 µM	C=CC(OC(C)=O)c1cccc(O)c1 (configuration not stated)	25%		
> 100 µM	C=CC(O)c1ccc(O)cc1 (configuration not stated)	-1%		
> 100 µM	CCC(O)c1ccc(O)cc1 (configuration not stated)	11%		
> 30 µM	C=CC(O)c1ccc(OC)cc1 (configuration not stated)	-3%	100 µM	
> 100 µM	C=C[C@H](O)c1ccccc1	19%		
> 100 µM	CC[C@H](O)c1ccccc1	-4%		
3.2 µM	C=CC(OC(C)=O)c1ccccc1OC(C)=O (configuration not stated)			
8.2 µM	C=C[C@@H](OC(C)=O)c1ccc(OC(C)=O)cc1			
9.2 µM	C=CCC(OC(C)=O)c1ccc(OC(C)=O)cc1 (configuration not stated)			
19 µM	CC(=O)OC/C=C/c1ccc(OC(C)=O)cc1			
> 100 µM	O=C(O)/C=C/c1cccc(O)c1	3%		
> 100 µM	COc1ccc(/C=C/C(=O)O)cc1 [4-METHOXYCINNAMIC ACID]	27%		
> 100 µM	C=CCc1ccc(O)cc1 [CHAVICOL]	43%		
15 µM	C=CCc1ccc(O)c(O)c1 [HYDROXYCHAVICOL]			
> 100 µM	C=CCc1ccc(OC)c(OC)c1 [METHYLEUGENOL]	1%		
> 100 µM	O=C(O)/C=C/c1ccccc1O [O-COUMARIC ACID]	7%		
> 100 µM	COc1cc(/C=C/C(=O)O)cc(OC)c1O [SINAPINATE]	27%		
